Read-outs that look alike come from different tables or passages of the source.
Experiments:
URAT1 (SLC22A12) = URAT1 (SLC22A12) (Homo sapiens (Human), UniProt Q96S37); assay: URAT1 (SLC22A12) cellular uptake assay, 3H-orotate transport in stably transfected URAT-1/CHO cells; assay type: cell-based
xanthine oxidase = xanthine oxidase (Homo sapiens (Human), UniProt P47989); assay: Fluorescence-based xanthine oxidase inhibition assay; assay type: biochemical
[1] = URAT-1/CHO cells, 3H-orotate uptake, 7 concentrations 0.01 to 150 μM, read-out: URAT1 IC50
[2] = triplicate, 10 concentrations, read-out: Xanthine Oxidase IC50

URAT1 (SLC22A12), sequence (Q96S37 whole entry): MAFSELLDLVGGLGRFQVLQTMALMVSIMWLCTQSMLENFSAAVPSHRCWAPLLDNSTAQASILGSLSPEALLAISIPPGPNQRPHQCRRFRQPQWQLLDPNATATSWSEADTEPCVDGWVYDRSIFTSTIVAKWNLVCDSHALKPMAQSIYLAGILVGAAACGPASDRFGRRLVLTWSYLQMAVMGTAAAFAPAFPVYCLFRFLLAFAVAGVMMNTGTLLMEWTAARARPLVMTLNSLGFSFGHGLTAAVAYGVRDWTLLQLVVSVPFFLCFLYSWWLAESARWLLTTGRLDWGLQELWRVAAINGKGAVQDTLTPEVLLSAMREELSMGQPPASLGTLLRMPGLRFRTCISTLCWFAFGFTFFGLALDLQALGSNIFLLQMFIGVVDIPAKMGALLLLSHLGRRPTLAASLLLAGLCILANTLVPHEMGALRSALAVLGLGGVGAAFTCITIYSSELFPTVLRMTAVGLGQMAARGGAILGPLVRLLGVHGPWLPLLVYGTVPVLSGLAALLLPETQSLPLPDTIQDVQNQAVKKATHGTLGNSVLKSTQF
xanthine oxidase, sequence (P47989 whole entry, species assumed): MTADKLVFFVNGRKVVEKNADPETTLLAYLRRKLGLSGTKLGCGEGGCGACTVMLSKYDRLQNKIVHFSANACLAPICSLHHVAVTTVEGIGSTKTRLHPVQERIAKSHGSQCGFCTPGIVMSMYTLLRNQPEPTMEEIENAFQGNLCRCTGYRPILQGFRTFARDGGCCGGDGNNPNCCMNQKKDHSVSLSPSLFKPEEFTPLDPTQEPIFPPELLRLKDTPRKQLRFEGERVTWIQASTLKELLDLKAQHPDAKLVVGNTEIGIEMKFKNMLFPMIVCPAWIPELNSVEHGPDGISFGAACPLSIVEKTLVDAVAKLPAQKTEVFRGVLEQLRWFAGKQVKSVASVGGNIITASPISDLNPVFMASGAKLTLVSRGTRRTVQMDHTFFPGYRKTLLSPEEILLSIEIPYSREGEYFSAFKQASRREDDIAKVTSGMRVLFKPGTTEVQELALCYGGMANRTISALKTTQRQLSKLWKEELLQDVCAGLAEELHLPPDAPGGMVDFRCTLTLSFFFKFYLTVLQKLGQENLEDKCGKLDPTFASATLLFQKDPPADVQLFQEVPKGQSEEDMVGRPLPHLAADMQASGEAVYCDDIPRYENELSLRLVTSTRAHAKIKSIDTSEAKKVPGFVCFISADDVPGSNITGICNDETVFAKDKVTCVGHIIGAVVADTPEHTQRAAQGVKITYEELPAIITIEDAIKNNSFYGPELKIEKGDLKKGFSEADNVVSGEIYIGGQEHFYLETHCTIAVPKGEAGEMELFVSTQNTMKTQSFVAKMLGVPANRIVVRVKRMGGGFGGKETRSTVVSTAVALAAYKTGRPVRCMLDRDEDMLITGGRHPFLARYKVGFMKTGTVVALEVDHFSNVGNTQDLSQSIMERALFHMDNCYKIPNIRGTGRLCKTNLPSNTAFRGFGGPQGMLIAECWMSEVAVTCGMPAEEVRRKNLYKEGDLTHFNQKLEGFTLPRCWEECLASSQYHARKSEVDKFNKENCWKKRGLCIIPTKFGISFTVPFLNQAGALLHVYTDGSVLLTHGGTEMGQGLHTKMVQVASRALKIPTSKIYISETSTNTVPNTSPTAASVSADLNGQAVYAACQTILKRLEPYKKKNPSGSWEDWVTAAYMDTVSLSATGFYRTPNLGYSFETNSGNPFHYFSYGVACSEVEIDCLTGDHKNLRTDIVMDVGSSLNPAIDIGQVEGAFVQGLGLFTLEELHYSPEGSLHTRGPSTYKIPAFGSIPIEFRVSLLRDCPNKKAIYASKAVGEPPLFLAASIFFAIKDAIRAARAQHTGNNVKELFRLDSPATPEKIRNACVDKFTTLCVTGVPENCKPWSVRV

SMILES | IC50 (URAT1 (SLC22A12)) | IC50 (xanthine oxidase) | IC50 (URAT1 (SLC22A12); [1]) | IC50 (xanthine oxidase; [2])
O=C(Nc1ccc(F)cc1)c1c(O)[nH]c(=S)[nH]c1=O [Formula (Ib), N-(4′-fluorophenyl)-1,2,3,4-tetrahydro-6-hydroxy-4-oxo-2-thioxo-5-pyrimidinecarboxamide] | < 10 µM | < 10 µM | – | –
O=C(Nc1ccc(O)cc1F)c1c(O)[nH]c(=S)[nH]c1=O [Formula (Ic), N-(2′-fluoro-4′-hydroxyphenyl)-1,2,3,4-tetrahydro-6-hydroxy-4-oxo-2-thioxo-5-pyrimidinecarboxamide] | < 10 µM | < 10 µM | 5.83 µM | 5.6 µM
O=C(Nc1cc(F)c(O)c(F)c1)c1c(O)[nH]c(=O)[nH]c1=O [Formula (Ig), N-(3,5-difluoro-4-hydroxyphenyl)-6-hydroxy-2,4-dioxo-1,2,3,4-tetrahydropyrimidine-5-carboxamide] | < 10 µM | < 10 µM | 3.55 µM | 1.92 µM
O=C(Nc1ccc(O)cc1F)c1c(O)[nH]c(=O)[nH]c1=O [Formula (Ih), N-(2-fluoro-4-hydroxyphenyl)-6-hydroxy-2,4-dioxo-1,2,3,4-tetrahydropyrimidine-5-carboxamide] | – | – | 1.79 µM | 5.97 µM
O=C(Nc1ccncc1)c1c(O)[nH]c(=O)[nH]c1=O [Formula (Ik), 6-hydroxy-2,4-dioxo-N-(pyridin-4-yl)-1,2,3,4-tetrahydropyrimidine-5-carboxamide] | – | – | 5.3 µM | 14.3 µM

— patent US10093631B2, “Bifunctional compounds and use for reducing uric acid levels” (Acquist LLC, priority 2014, dated 2018)
